Measured values: patent US8686115B2, “Compositions and methods for quantitatively monitoring lipids” (The Board of Trustees of the University of Illinois, priority 2009, dated 2014)
Substitutions are numbered along the chain they refer to.

Columns and labels:
[1] = biological target: T1, DAN-eENTH: epsin 1 ENTH domain variant M10C/C96A/S4W, SEQ ID NO: 2, labeled with DAN at C10 (Homo sapiens, UniProt Q9Y6I3, C96A/M10C/S4W); assay: Ratiometric (FB/FG) two-photon microscopy of DAN-eENTH binding to PtdIns(4,5)P2 in GUVs; conditions: FB/FG versus [PtdIns(4,5)P2]; POPC/POPS/PtdIns(4,5)P2 (80-x:20:x) GUVs; 37° C.; read-out: Kd for PtdIns(4,5)P2 (FB/FG ratiometric analysis)
T1 construct: The Epsin1 ENTH domain (1-158 amino acids) was subcloned; GST (C, cleaved yes); made in house; host or cells: E. coli BL21 RIL codon plus
T1 sequence (Q9Y6I3 1-158 S4W/M10C/C96A): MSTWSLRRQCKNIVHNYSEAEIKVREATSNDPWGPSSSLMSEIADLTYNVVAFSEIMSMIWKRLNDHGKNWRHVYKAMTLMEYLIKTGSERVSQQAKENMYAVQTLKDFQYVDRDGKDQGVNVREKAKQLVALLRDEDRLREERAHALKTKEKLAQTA
Experimental: The background correction for FB/FG values was unnecessary because FB=0 in the absence of PtdIns(4,5)P2. […] The theoretic curve was then constructed using these parameters.
To calibrate the fluorescence microscope and the DAN-eENTH sensor for cellular PtdIns(4,5)P2 quantification, we then determined by photon counting F values in the blue channel (FB; observed with a 436±10 band pass filter) and the green channel (FG; observed with a 525±25 band pass filter) when DAN-eENTH was added to the solution of giant unilamellar vesicles (GUV) with the composition of POPC/POPS/PtdIns(4,5)P2 (80-x:20:x with x=0-3). […] The resulting FB versus the surface concentration of PtdIns(4,5)P2 ([PtdIns(4,5)P2]s; see Methods for calculation) (FIG. 2C) or (FB/FG) versus [PtdIns(4,5)P2]s (FIG. 2d) calibration curve was used for ensuing PtdIns(4,5)P2 quantification in GUV and in mammalian cells. With respect to FIG. 5, the bar indicates 10 μm and the radius of this GUV is measured as […]. […]
In vitro calibration of our DAN-eENTH sensor was performed using GUVs composed of POPC/POPS/PtdIns(4,5)P2 (80-x:20:x) (x=0-3 mol %). […] These GUV were mixed with DAN-eENTH in the concentration range of 0-500 nM and spatiotemporally resolved fluorescence measurements were carried out at 37° C. using the custom-built multi-photon, multi-channel microscope that was described previously 13. […]

[2] = biological target: T2, DAN-eENTH (epsin 1 ENTH domain variant M10C/C96A/S4W, SEQ ID NO: 2, DAN labeled) mutant L6A/R7A/R8A (Homo sapiens, UniProt Q9Y6I3, C96A/L6A/M10C/R7A/R8A/S4W); assay: SPR binding of DAN-eENTH-L6A/R7A/R8A to phosphoinositide-containing LUVs; conditions: see Table 1
T2 construct: The Epsin1 ENTH domain (1-158 amino acids) was subcloned; GST (C, cleaved yes); made in house; host or cells: E. coli BL21 RIL codon plus
T2 sequence (Q9Y6I3 with tags, fused parts or gaps C96A): T1 sequence (Q9Y6I3 1-158 S4W/M10C/C96A) with L6A, R7A, R8A

CCCCCCCCCCCCCCCC(=O)OC[C@H](COP(=O)(O)O[C@@H]1[C@H](O)[C@H](O)[C@@H](OP(=O)(O)O)[C@H](OP(=O)(O)O)[C@H]1O)OC(=O)CCCCCCCCCCCCCCC [PtdIns(4,5)P2, phosphatidylinositol-4,5-bisphosphate]
Kd [1]: 0.044 ± 0.006 µM
PtdIns(4,5)P2 affinity [2]: devoid of PtdIns(4,5)P2 affinity
